From ChEMBL document CHEMBL1128724, “Unsaturated acyclic analogues of 2'-deoxyadenosine and thymidine containing fluorine: synthesis and biological activity” (J Med Chem, 1995)

Assays:
[1] = test system: L1210; assay: Growth inhibition of murine leukemia L1210 cells.; type: functional, cell-based; conditions: Mus musculus
[2] = test system: ATH-8 cell line; assay: Inhibitory activity against HIV-1 in ATH8 cells; type: functional, cell-based; conditions: Homo sapiens
[3] = test system: ATH-8 cell line; assay: Inhibitory activity against HIV-1 in ATH8 cells; IA means Inactive; type: functional, cell-based, Homo sapiens

Compound	IC50 [1] [µM]	other results
Nc1ncnc2c1ncn2C(F)C#CCO (centres undefined)	89	
Cc1cn(C/C=C(/F)CO)c(=O)[nH]c1=O	60	
Nc1ncnc2c1ncn2C/C=C(/F)CO		IC50 [2]: 100 µM
Nc1ncnc2c1ncn2C/C=C(\F)CO		IC50 [3]: Not Active
